PMC8151276, “An Integrated Approach toward NanoBRET Tracers for Analysis of GPCR Ligand Engagement” (Molecules, 2021)
Blank lines part the entries; values can stand above or below the molecule they belong to.

Key:
Assay type in all cases: binding
[1] = biological target: T1, NMUR1 (Homo sapiens, UniProt Q9HB89); assay: NanoBRET screen HiBiT-NMUR1 in HEK293
T1 construct: purchased Promega (in-house HiBiT-GPCR construct library, NanoBRET)
T1 sequence (Q9HB89 1-426): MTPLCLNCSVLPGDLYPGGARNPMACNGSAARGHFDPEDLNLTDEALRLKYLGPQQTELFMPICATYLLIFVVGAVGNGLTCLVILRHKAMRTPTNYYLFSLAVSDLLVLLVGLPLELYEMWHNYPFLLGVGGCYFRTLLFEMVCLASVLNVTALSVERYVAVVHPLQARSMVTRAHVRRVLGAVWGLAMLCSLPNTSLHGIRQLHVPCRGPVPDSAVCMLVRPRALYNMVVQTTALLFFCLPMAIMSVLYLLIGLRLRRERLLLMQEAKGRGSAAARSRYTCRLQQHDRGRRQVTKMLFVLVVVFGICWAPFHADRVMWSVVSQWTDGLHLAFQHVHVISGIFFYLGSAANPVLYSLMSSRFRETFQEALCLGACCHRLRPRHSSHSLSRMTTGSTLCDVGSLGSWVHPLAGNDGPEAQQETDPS
Experimental: (§1) Each tracer candidate was screened across the entire library of HiBiT-GPCR constructs using NanoBRET as the detection modality. As depicted in Figure 4A, the specificity of interactions was evaluated through decrease in BRET due to competitive displacement of a bound tracer by excess parental compound. Each tracer was analyzed for binding to each HiBiT-GPCR fusion in the absence and in the presence of competing parental compound. Briefly, HEK293 cells were transfected with HiBiT-GPCR constructs diluted into promoterless DNA to reduce expression and maximize translocation to the cell surface. Each tracer candidate was then screened at concentrations of 1 μM and 0.1 μM across cells expressing these fusions. Cells were treated for 1.5 h with tracer either alone or in the presence of 20 μM competing parental compound (i.e., control). BRET was measured upon addition of purified LgBiT and subsequent complementation with HiBiT genetically fused to a GPCR. The specificity of interactions was assessed through a decrease in BRET signal due to competitive displacement of the bound tracer. To further gauge the robustness of these interactions, the fold response over the control (i.e., BRETtracer/BRETcontrol) was calculated. We chose a 1.5-fold response, which translates to ≥7-fold signal over noise as the minimal threshold required to score an interaction as positive. […]. Below we highlight the screening results obtained for our exemplary fluorescent tracers based on Clozapine, Amitriptyline and AZD1283.
(§2) HiBiT-GPCR DNA constructs were diluted in 10 mM Tris pH 8 to a final concentration of 0.01 μg/μL, arrayed in 96-well plates and stored at −20 °C. For transfection, HEK293 cells were suspended in Opti-MEM (without phenol red) supplemented with 2% fetal bovine serum (Seradigm) and 100 units/mL penicillin–streptomycin (Gibco) at a final concentration of 220,000 cells/mL and dispensed into white 96-well plates at 90 μL/well. Subsequent transfections and screens were carried using an Agilent Bravo Automated Liquid Handling Platform. First, the 96-well HiBiT DNA arrays were diluted 25-fold in Opti-MEM (without serum or phenol red) to a final concentration of 0.0004 μg/μL and 20 μL of the diluted DNAs were transferred into new 96-well plates. Next, promoterless carrier DNA (1 μg/μL) was diluted 25-fold (0.04 μg/μL) and then dispensed into the diluted arrays at 20 μL/well. Following brief mixing, Viafect transfection reagent (Promega) diluted 16-fold into Opti-MEM was dispensed into the plates at 40 μL/well. After mixing by pipetting, plates were incubated for 10 min on the pipetting station deck. The DNA-transfection reagent complexes were then added to plates containing cells. To facilitate the screen, 10 μL of DNA-transfection reagent complexes were added in duplicates to the top 4 and bottom 4 rows, resulting in two identical 48-well arrays per plate. Plates with transfected cells were incubated for 18–20 h at 37 °C/5% CO2. A screen of each tracer across the entire library using two different concentrations requires duplicate plates of transfected cells. Depending on the number of tracers being screened, transfections can be scaled up using the same ratios. The next day, for each tracer, four 20× screening solutions in tracer dilution buffer (Promega) were prepared: two duplicates at final concentration of 20 μM and two duplicates at a final concentration of 2 μM. A competing unmodified compound was added to one of each duplicate at a final concentration of 400 μM. The four resulting solutions were diluted 4-fold in Opti-MEM without serum or phenol red to generate 5× solutions (5 µM and 0.5 µM tracer +/− 100 μM competing compound). To screen the library, a BioTek MultiFlo FX liquid dispenser was used to dispense 22.5 µL of tracer solution to the top 4 rows and 22.5 µL tracer + competing compound solution to the 4 bottom rows. Plates were briefly mixed on an orbital shaker and incubated for 1.5 h at room temperature. […]

[2] = biological target: T2, GRM8 (Homo sapiens, UniProt O00222); assay: NanoBRET screen HiBiT-GRM8 in HEK293
T2 construct: purchased Promega (in-house HiBiT-GPCR construct library, NanoBRET)
T2 sequence (O00222 34-908): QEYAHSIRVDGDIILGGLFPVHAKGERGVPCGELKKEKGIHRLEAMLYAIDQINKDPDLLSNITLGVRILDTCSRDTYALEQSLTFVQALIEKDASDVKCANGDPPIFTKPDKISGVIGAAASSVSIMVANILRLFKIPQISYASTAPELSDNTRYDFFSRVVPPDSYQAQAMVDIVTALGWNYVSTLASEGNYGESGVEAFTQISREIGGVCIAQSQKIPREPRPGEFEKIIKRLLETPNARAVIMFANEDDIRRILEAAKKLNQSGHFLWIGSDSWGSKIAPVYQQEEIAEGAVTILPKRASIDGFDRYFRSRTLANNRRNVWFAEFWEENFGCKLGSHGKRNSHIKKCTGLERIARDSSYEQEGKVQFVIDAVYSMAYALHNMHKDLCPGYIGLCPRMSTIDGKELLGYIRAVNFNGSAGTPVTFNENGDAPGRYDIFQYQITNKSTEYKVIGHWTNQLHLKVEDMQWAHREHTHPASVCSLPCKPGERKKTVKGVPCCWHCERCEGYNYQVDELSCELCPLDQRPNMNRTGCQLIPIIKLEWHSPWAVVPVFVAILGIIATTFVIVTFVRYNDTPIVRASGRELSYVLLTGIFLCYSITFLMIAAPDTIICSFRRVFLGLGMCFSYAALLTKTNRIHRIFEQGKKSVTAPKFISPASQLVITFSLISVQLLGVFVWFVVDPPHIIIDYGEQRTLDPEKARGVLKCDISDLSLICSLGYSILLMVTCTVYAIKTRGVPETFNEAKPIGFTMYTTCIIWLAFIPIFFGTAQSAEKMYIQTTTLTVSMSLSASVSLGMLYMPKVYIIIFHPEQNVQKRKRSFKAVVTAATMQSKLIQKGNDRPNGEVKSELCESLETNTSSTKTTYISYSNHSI
Experimental: as §1, §2

[3] = biological target: T3, TBXA2R (Homo sapiens, UniProt P21731); assay: NanoBRET screen HiBiT-TBXA2R in HEK293
T3 construct: purchased Promega (in-house HiBiT-GPCR construct library, NanoBRET)
T3 sequence (P21731 1-343): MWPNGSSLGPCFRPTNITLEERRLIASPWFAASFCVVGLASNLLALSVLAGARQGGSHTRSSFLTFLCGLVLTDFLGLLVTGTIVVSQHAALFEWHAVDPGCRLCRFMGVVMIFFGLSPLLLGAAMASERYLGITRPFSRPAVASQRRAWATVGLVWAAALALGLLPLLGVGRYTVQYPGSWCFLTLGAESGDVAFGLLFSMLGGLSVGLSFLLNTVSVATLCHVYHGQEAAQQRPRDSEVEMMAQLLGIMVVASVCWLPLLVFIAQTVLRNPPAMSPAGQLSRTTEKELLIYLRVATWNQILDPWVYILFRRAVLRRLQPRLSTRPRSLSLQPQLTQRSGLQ
Experimental: as §1, §2

[4] = biological target: T4, HRH3 (Homo sapiens, UniProt Q9Y5N1); assay: NanoBRET screen HiBiT-HRH3 in HEK293
T4 construct: purchased Promega (in-house HiBiT-GPCR construct library, NanoBRET)
T4 sequence (Q9Y5N1 whole entry): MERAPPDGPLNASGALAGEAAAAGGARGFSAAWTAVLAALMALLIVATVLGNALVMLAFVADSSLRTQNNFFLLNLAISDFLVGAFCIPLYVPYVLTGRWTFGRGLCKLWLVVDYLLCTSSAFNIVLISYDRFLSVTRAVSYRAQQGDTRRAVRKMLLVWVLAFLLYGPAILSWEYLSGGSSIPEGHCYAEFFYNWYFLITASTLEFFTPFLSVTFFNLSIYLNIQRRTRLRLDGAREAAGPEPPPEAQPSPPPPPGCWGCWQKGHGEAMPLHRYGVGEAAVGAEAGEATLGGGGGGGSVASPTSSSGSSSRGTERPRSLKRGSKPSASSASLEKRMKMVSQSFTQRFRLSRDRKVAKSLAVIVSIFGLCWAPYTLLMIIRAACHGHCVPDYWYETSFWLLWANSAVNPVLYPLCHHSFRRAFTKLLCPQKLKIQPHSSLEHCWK
Experimental: as §1, §2

[5] = biological target: T5, MC3R (Homo sapiens, UniProt P41968); assay: NanoBRET screen HiBiT-MC3R in HEK293
T5 construct: purchased Promega (in-house HiBiT-GPCR construct library, NanoBRET)
T5 sequence (P41968 whole entry): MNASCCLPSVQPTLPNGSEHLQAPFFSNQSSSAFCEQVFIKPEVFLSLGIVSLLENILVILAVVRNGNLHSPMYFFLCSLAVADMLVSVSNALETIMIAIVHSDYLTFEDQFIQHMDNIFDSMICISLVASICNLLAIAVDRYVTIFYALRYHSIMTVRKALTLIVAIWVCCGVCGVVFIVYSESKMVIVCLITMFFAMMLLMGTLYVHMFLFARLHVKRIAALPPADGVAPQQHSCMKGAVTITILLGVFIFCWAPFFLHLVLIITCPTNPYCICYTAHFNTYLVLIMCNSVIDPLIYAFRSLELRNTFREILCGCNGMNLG
Experimental: as §1, §2

Structure (SMILES): Cc1cc2c(s1)Nc1ccccc1N=C2N1CCN(CCCNC(=O)CCOCCOCCOCCOCCNC(=O)CCc2ccc3n2[B-](F)(F)[N+]2=C(c4ccc[nH]4)C=CC2=C3)CC1 [Olanzapine-a-2-NB590]
NanoBRET Fold Response ([1]; NMUR1, tracer 0.1μM): 0.98
NanoBRET Fold Response ([1]; NMUR1, tracer 1μM): 1.00
NanoBRET Fold Response ([2]; GRM8, tracer 0.1μM): 0.97
NanoBRET Fold Response ([2]; GRM8, tracer 1μM): 1.04
NanoBRET Fold Response ([3]; TBXA2R, tracer 0.1μM): 0.95
NanoBRET Fold Response ([3]; TBXA2R, tracer 1μM): 1.02
NanoBRET Fold Response ([4]; HRH3, tracer 0.1μM): 1.06
NanoBRET Fold Response ([4]; HRH3, tracer 1μM): 1.16
NanoBRET Fold Response ([5]; MC3R, tracer 0.1μM): 1.00
NanoBRET Fold Response ([5]; MC3R, tracer 1μM): 1.12

Structure (SMILES): CN1CCN(C2=Nc3cc(Cl)ccc3Nc3ccc(CNC(=O)CCOCCOCCOCCOCCNC(=O)CCc4ccc5n4[B-](F)(F)[N+]4=C(c6ccc[nH]6)C=CC4=C5)cc32)CC1 [Clozapine-b-2-NB590]
NanoBRET Fold Response ([1]; NMUR1, 0.1μM tracer): 0.98
NanoBRET Fold Response ([1]; NMUR1, 1μM tracer): 0.94
NanoBRET Fold Response ([2]; GRM8, 0.1μM tracer): 1.01
NanoBRET Fold Response ([2]; GRM8, 1μM tracer): 1.02
NanoBRET Fold Response ([3]; TBXA2R, 0.1μM tracer): 0.98
NanoBRET Fold Response ([3]; TBXA2R, 1μM tracer): 1.08
NanoBRET Fold Response ([4]; HRH3, 0.1μM tracer): 0.98
NanoBRET Fold Response ([4]; HRH3, 1μM tracer): 1.06
NanoBRET Fold Response ([5]; MC3R, 0.1μM tracer): 1.05
NanoBRET Fold Response ([5]; MC3R, 1μM tracer): 0.94

NanoBRET Fold Response ([1]; 0.1μM tracer): 0.78
NanoBRET Fold Response ([1]; 1μM tracer): 0.97
NanoBRET Fold Response ([2]; 0.1μM tracer): 0.96
NanoBRET Fold Response ([2]; 1μM tracer): 0.95
NanoBRET Fold Response ([3]; 0.1μM tracer): 0.84
NanoBRET Fold Response ([3]; 1μM tracer): 0.94
NanoBRET Fold Response ([4]; 0.1μM tracer): 1.07
NanoBRET Fold Response ([4]; 1μM tracer): 1.07
NanoBRET Fold Response ([5]; 0.1μM tracer): 0.93
NanoBRET Fold Response ([5]; 1μM tracer): 1.22
Structure (SMILES): COc1ccc2c(n1)c(CCNC(C)=O)cn2CCNC(=O)CCc1ccc2n1[B-](F)(F)[N+]1=C(c3ccc[nH]3)C=CC1=C2 [Azamelatonin-1-NB590]

Structure (SMILES): O=C(CCc1ccc2n1[B-](F)(F)[N+]1=C(c3ccc[nH]3)C=CC1=C2)NCc1ccc(C(=O)NCCOCCOCCNCC(O)COc2cccc3ccccc23)cc1 (centres unmarked) [Propranolol-3-NB590]
NanoBRET Fold Response ([1]; NMUR1, 0.1μM): 1.01
NanoBRET Fold Response ([1]; NMUR1, 1μM): 1.00
NanoBRET Fold Response ([2]; GRM8, 0.1μM): 0.99
NanoBRET Fold Response ([2]; GRM8, 1μM): 1.00
NanoBRET Fold Response ([3]; TBXA2R, 0.1μM): 0.97
NanoBRET Fold Response ([3]; TBXA2R, 1μM): 1.09
NanoBRET Fold Response ([4]; HRH3, 0.1μM): 0.97
NanoBRET Fold Response ([4]; HRH3, 1μM): 1.00
NanoBRET Fold Response ([5]; MC3R, 0.1μM): 1.05
NanoBRET Fold Response ([5]; MC3R, 1μM): 0.99

NanoBRET Fold Response ([1]; NMUR1, 0.1μM tracer): 1.14
NanoBRET Fold Response ([1]; NMUR1, 1μM tracer): 1.16
NanoBRET Fold Response ([2]; GRM8, 0.1μM tracer): 1.01
NanoBRET Fold Response ([2]; GRM8, 1μM tracer): 1.00
NanoBRET Fold Response ([3]; TBXA2R, 0.1μM tracer): 1.08
NanoBRET Fold Response ([3]; TBXA2R, 1μM tracer): 1.08
NanoBRET Fold Response ([4]; HRH3, 0.1μM tracer): 0.97
NanoBRET Fold Response ([4]; HRH3, 1μM tracer): 0.91
NanoBRET Fold Response ([5]; MC3R, 0.1μM tracer): 1.02
NanoBRET Fold Response ([5]; MC3R, 1μM tracer): 0.95
Structure (SMILES): O=C(CCOCCOCCOCCOCCNC(=O)CCc1ccc2n1[B-](F)(F)[N+]1=C(c3ccc[nH]3)C=CC1=C2)NCCCN1CCN(C2=Nc3cc(Cl)ccc3Nc3ccccc32)CC1 [Clozapine-a-2-NB590]
